Reference: patent US10689365B2, “Substituted 2-alkylimidazolylcarboxamides as pesticides” (Bayer CropScience Aktiengesellschaft, priority 2016, dated 2020)
Read-outs that look alike come from different tables or passages of the source.

Legend:
[1] = system: Myzus persicae; test: Myzus persicae - oral test (MYZUPE O); type: in vivo; settings: read-out: % efficacy
Method: Myzus persicae—Oral Test (MYZUPE O)
(§1) Solvent: 100 parts by weight of acetone
(§2) To produce a suitable preparation of active compound, 1 part by weight of active compound is dissolved using the specified parts by weight of solvent and made up with water until the desired concentration is attained.
(§3) 50 μl of the active compound preparation are transferred into microtitre plates and made up to a final volume of 200 μl with 150 μl of IPL41 insect medium (33%+15% sugar). Subsequently, the plates are sealed with parafilm, which a mixed population of green peach aphids (Myzus persicae) within a second microtitre plate is able to puncture and imbibe the solution through it.
(§4) After the desired period of time, the efficacy in % is determined. 100% means that all the aphids have been killed; 0% means that no aphids have been killed.

[2] = system: Aphis gossypii; test: Aphis gossypii - spray test (APHIGO S), cotton plants; type: in vivo; settings: 144 h, 6 dat, read-out: % efficacy
Method: Aphis gossypii—Spray Test (APHIGO S)
(§5) Solvent: 14 parts by weight of dimethylformamide
(§6) Emulsifier: alkylaryl polyglycol ether
(§7) To produce a suitable active compound preparation, 1 part by weight of active compound is dissolved using the stated parts by weight of solvent and made up with water containing an emulsifier concentration of 1000 ppm until the desired concentration is attained. To produce further test concentrations, the formulation is diluted with emulsifier-containing water. If the addition of ammonium salts or/and penetrants is required, these are each added in a concentration of 1000 ppm to the formulation solution.
Cotton plants (Gossypium hirsutum) heavily infested by the cotton aphid (Aphis gossypii) are sprayed with an active ingredient formulation of the desired concentration.
After the desired time, the kill in % is determined. 100% means that all the aphids have been killed; 0% means that no aphids have been killed.

[3] = system: Myzus persicae; test: Myzus persicae - spray test (MYZUPE), Chinese cabbage leaf discs; type: in vivo; settings: foliar; for percent efficacy (aphid mortality) at 20 g/ha / Emax at 20 g/ha: 20 g of ai/ha; for percent efficacy (aphid mortality) at 100 g/ha: 100 g of ai/ha; for Emax at 20 g/ha: read-out: % efficacy
Method: Myzus persicae—Spray Test (MYZUPE)
Solvent: 78.0 parts by weight of acetone • • 1.5 parts by weight of dimethylformamide
as §6
as §7, with “water.” for “water. If the addition of ammonium salts or/and penetrants is required, these are each added in a concentration of 1000 ppm to the formulation solution.”
Discs of Chinese cabbage leaves (Brassica pekinensis) infested by all stages of the green peach aphid (Myzus persicae) are sprayed with an active compound preparation of the desired concentration.
as §4

[4] = system: Myzus persicae; test: Myzus persicae - oral test; type: in vivo; settings: application rate 20 ppm, after 5 days; for pest or weed control at 20 ppm: Myzus persicae, po, 120 h, read-out: efficacy
Method: as §1, §2, §3
After 5 days, the efficacy in % is determined. 100% means that all the aphids have been killed; 0% means that no aphids have been killed.

[5] = system: Myzus persicae; test: Myzus persicae - spray test (Chinese cabbage leaf discs); type: in vivo; settings: application rate 500 g/ha, after 5-6 days; for pest or weed control at 500 g/ha: Myzus persicae, foliar, read-out: efficacy
Method: Myzus persicae—Spray Test
Solvent: 78 parts by weight of acetone • • 1.5 parts by weight of dimethylformamide
as §6
as §7, with “water.” for “water. If the addition of ammonium salts or/and penetrants is required, these are each added in a concentration of 1000 ppm to the formulation solution.”
Discs of Chinese cabbage leaves (Brassica pekinensis) infested by all stages of the green peach aphid (Myzus persicae) are sprayed with an active ingredient formulation of the desired concentration.
After 5-6 days, the efficacy in % is determined. 100% means that all the aphids have been killed; 0% means that no aphids have been killed.

[6] = log P by HPLC on reversed-phase (C18) columns, OECD Guideline 117; type: physicochemical; settings: for chromatographic logP: reversed-phase (C18) HPLC column
Method: The log P values were determined in accordance with OECD Guideline 117 (EC Directive 92/69/EEC) by HPLC (high-performance liquid chromatography) using reversed-phase (RP) columns (C18), by the following methods:
[a] The LC-MS determination in the acidic range was carried out at pH 2.7 with 0.1% aqueous formic acid and acetonitrile (contains 0.1% formic acid) as mobile phases; linear gradient from 10% acetonitrile to 95% acetonitrile.
[b] LC-MS determination in the neutral range was carried out at pH 7.8 with 0.001 molar aqueous ammonium hydrogencarbonate solution and acetonitrile as mobile phases; linear gradient from 10% acetonitrile to 95% acetonitrile.

[7] = system: Myzus persicae; test: Myzus persicae - drench test (MYZUPE D), Savoy cabbage in soil; type: in vivo; settings: 240 h, 10 dat, read-out: % efficacy
Method: Myzus persicae—Drench Test (MYZUPE D)
To produce a suitable active compound preparation, 1 part by weight of active compound is mixed with the specified amounts of solvent and emulsifier, and the concentrate is diluted with water to the desired concentration, it being necessary to include the volume of soil which is drenched in the calculation. It should be ensured that a concentration of 40 ppm of emulsifier in the soil is not exceeded. To produce further test concentrations, water is used for dilution.
Savoy cabbage (Brassica oleracea) in pots with soil and infested by all stages of the green peach aphid (Myzus persicae) is watered with an active compound preparation of the desired concentration.
as §4

[8] = system: Myzus persicae; test: Myzus persicae - spray test (MYZUPE S), bell pepper plants; type: in vivo; settings: 144 h, 6 dat, read-out: % efficacy
Method: Myzus persicae—Spray Test (MYZUPE S)
as §5, §6
as §7, with “with” for “using”, “specified” for “stated”
Bell pepper plants (Capsicum annuum) severely infested with the green peach aphid (Myzus persicae) are treated by spraying with the active ingredient formulation in the desired concentration.
After the desired time, the kill in % is determined. 100% means that all the animals have been killed; 0% means that no animals have been killed.

[9] = acidic range, pH 2.7, 0.1% aqueous formic acid/acetonitrile, read-out: logP[a]
[10] = neutral range, pH 7.8, aqueous ammonium hydrogencarbonate/acetonitrile, read-out: logP[n]
[11] = acidic range, pH 2.7, 0.1% aqueous formic acid/acetonitrile
[12] = neutral range, pH 7.8, aqueous ammonium hydrogencarbonate/acetonitrile

| chromatographic logP [6, 9] | chromatographic logP [6, 10] | SMILES | Emax at 4 ppm ([1]; 120 h, 5 dat) | Emax at 0.8 ppm [2] | Emax at 4 ppm [2] | percent efficacy (aphid mortality) at 100 g/ha ([3]; 120 h, 5 dat) | pest or weed control at 20 ppm [4] | pest or weed control at 500 g/ha [5] | Emax at 0.16 ppm [7] | further results |
| --- | --- | --- | --- | --- | --- | --- | --- | --- | --- | --- |
| 0.46 | 1.18 | CCSCc1ncc(C(=O)N(C)c2cccnc2)n1C [Example I-1-27] | 100% | 98% | 100% | 90% | 100% | 90% | 98% | percent efficacy (aphid mortality) at 20 g/ha ([3]; 120 h, 5 dat): 90% |
| 0.97 | 1.67 | CN(C(=O)c1cnc(CSC(C)(C)C)n1C)c1cccnc1 [Example I-1-33] | 100% | – | 75% | 90% | 100% | 100% | 90% | Emax at 20 g/ha ([3]; 120 h, 5 dat): 100% |
| 0.35 | 1.04 | COC(=O)CSCc1ncc(C(=O)N(C)c2cccnc2)n1C [Example I-1-37] | 100% | – | – | – | 100% | 100% | – | – |
| 1.14 | 1.73 | CN(C(=O)c1cnc(CSc2ccccc2)n1C)c1cccnc1 [Example I-1-38] | 100% | 60% | – | – | 90% | 90% | – | percent kill (mortality) of aphids at a fixed dose at 4 ppm [2]: 100% |
| 1.41 | 1.99 | CN(C(=O)c1cnc(CSc2ccccc2Cl)n1C)c1cccnc1 [Example I-1-39] | 100% | 30% | 95% | 90% | 100% | 90% | – | percent efficacy (aphid mortality) at 20 g/ha ([3]; 120 h, 5 dat): 90% |
| 1.55 | 2.11 | CN(C(=O)c1cnc(CSc2cccc(Cl)c2)n1C)c1cccnc1 [Example I-1-40] | 100% | – | – | 90% | 100% | 90% | – | – |
| 1.57 | 2.07 | CN(C(=O)c1cnc(CSc2ccc(Cl)cc2)n1C)c1cccnc1 [Example I-1-41] | 100% | 35% | 100% | 90% | 100% | 90% | – | Emax at 20 g/ha ([3]; 120 h, 5 dat): 70% |
| 0.27 | 1.01 | CN(C(=O)c1cnc(CSc2ncccn2)n1C)c1cccnc1 [Example I-1-42] | 90% | – | – | 70% | 100% | 100% | – | – |
| 0.35 | 0.81 | CN(C(=O)c1cnc(Cn2cccn2)n1C)c1cccnc1 [Example I-1-43, N,1-Dimethyl-2-(1H-pyrazol-1-ylmethyl)-N-(pyridin-3-yl)-1H-imidazole-5-carboxamide] | 100% | 30% | 98% | – | 100% | 100% | 70% | percent efficacy (aphid mortality) at 20 g/ha ([3]; 96 h, 4 dat): 90%; percent efficacy (aphid mortality) at 100 g/ha ([3]; 96 h, 4 dat): 90% |
| 1.46 | 1.64 | CN(C(=O)c1cnc(Cn2ccc(C(F)(F)F)n2)n1C)c1cccnc1 [Example I-1-44] | 100% | 55% | 99% | – | 100% | 100% | 90% | percent efficacy (aphid mortality) at 20 g/ha ([3]; 96 h, 4 dat): 90%; percent efficacy (aphid mortality) at 100 g/ha ([3]; 96 h, 4 dat): 90% |
| 1.34 | 1.59 | CN(C(=O)c1cnc(Cn2cc(C(F)(F)F)cn2)n1C)c1cccnc1 [Example I-1-45] | 100% | – | – | – | 100% | 90% | 80% | percent kill (mortality) of aphids at a fixed dose at 0.8 ppm [2]: 98%; percent kill (mortality) of aphids at a fixed dose at 4 ppm [2]: 100%; percent efficacy (aphid mortality) at 100 g/ha ([3]; 96 h, 4 dat): 100% |
| 0.05 | 0.42 | CN(C(=O)c1cnc(Cn2ccnn2)n1C)c1cccnc1 [Example I-1-46] | – | – | – | – | 100% | 100% | – | Emax at 4 ppm ([1]; 144 h, 6 dat): 100%; percent efficacy (aphid mortality) at 20 g/ha ([3]; 144 h, 6 dat): 90%; percent efficacy (aphid mortality) at 100 g/ha ([3]; 144 h, 6 dat): 90% |
| – | – | CCOCc1ncc(C(=O)N(C)c2cccnc2)n1C [Example I-1-64] | – | – | – | – | – | – | – | efficacy [4]: 100%; efficacy [5]: 100%; logP[a] [6, 11]: 0.18; logP[n] [6, 12]: 0.92 |
| – | – | CC(C)OCc1ncc(C(=O)N(C)c2cccnc2)n1C [Example I-1-65] | – | – | – | – | – | – | – | efficacy [4]: 100%; efficacy [5]: 90%; logP[a] [6, 11]: 0.42; logP[n] [6, 12]: 1.20 |
| – | – | Cc1nc(C(=O)Nc2cccnc2)c[nH]1 [Prior art WO2011/009804 (Ex. 14), reference compound] | 0% | – | – | 0% | – | – | – | percent efficacy (aphid mortality) at 20 g/ha ([3]; 120 h, 5 dat): 0% |
| – | – | O=C(Nc1cccnc1)c1c[nH]cn1 [Prior art WO 2011/009804 (Ex. 13), reference compound] | – | – | – | – | – | – | – | Emax at 4 ppm ([1]; 144 h, 6 dat): 0%; percent efficacy (aphid mortality) at 20 g/ha ([3]; 144 h, 6 dat): 0%; percent efficacy (aphid mortality) at 100 g/ha ([3]; 144 h, 6 dat): 0% |
| – | – | Cc1ncc(C(=O)N(C)c2cccnc2)n1C [reference compound] | – | – | 40% | – | – | – | 30% | percent kill (mortality) of aphids at a fixed dose at 0.8 ppm [2]: 0%; Emax at 0.16 ppm [8]: 0% |
| – | – | CCc1ncc(C(=O)N(C)c2cccnc2)n1C [reference compound] | – | – | 45% | – | – | – | 0% | percent kill (mortality) of aphids at a fixed dose at 0.8 ppm [2]: 0%; Emax at 0.16 ppm [8]: 0% |
| – | – | Cc1ncc(C(=O)Nc2cccnc2)n1C [reference compound] | – | – | – | 70% | – | – | – | Emax at 20 g/ha ([3]; 120 h, 5 dat): 0% |
